From patent US5795887A, “Method of inducing cholecystokinin agonist activity using 1,4- Benzodiazepine compounds” (Glaxo Wellcome Inc., priority 1994, dated 1998) come the findings set out here.

In this assay the test system is isolated guinea pig gallbladder. The experiment in a line: Isolated guinea pig gallbladder assay (contraction, % CCK-induced maximal response). To be noted: Table 1; for % contraction at 1 µM / % contraction at 30 µM: Cavia porcellus; for % contraction at 1 µM: read-out: % Contraction (1 μM), expressed as % CCK-induced maximal response; for % contraction at 30 µM: read-out: % Contraction (30 μM), expressed as % CCK-induced maximal response. As to the method:
3. GUINEA PIG GALL BLADDER ASSAY
Gallbladders are removed from guinea pigs sacrificed by cervical dislocation. The isolated gallbladders are cleaned of adherent connective tissue and cut into two rings from each animal (2-6 mm in length). […] Tissues are connected via gold chains and stainless steel mounting wires to isometric force displacement transducers (Grass, Model FT03 D). Responses are then recorded on a polygraph (Grass, Model 7E).
Rings are gradually stretched (over a 120 min. period) to a basal resting tension of 1 gm which is maintained throughout the experiment. During the basal tension adjustment period, the rings are exposed to acetylcholine (10^-6 M) four times to verify tissue contractility. The tissues are then exposed to a submaximal dose of sulfated CCK-8 (Sigma, 3×10^-9 M). After obtaining a stable response, the tissues are washed out 3 times rapidly and every 5 to 10 minutes for 1 hour to reestablish a stable baseline.
As a final test, ACH (10 μM) is added to induce maximal contraction.

Take `COc1ccc(N(C(=O)CN2C(=O)[C@H](Cc3c[nH]c4ccccc34)NC(=O)c3ccccc32)C(C)C)cc1` [Example 21, (S)-2-[3-(1H-Indol-3-ylmethyl)-2,5-dioxo-2,3,4,5-tetrahydro-benzo[e][1,4]diazepin-1-yl]-N-isopropyl-N-(4-methyoxy-phenyl)-acetamide]: the % contraction at 1 µM (1 μM) is 54%.
In the case of `COc1ccc(N(C(=O)CN2C(=O)[C@@H](Cc3c[nH]c4ccccc34)NC(=O)c3ccccc32)C(C)C)cc1` [Example 20, (R)-2-[3-(1H-Indol-3-ylmethyl)-2,5-dioxo-2,3,4,5-tetrahydro-benzo[e][1,4]diazepin-1-yl]-N-isopropyl-N-(4-methyoxy-phenyl)-acetamide], the % contraction at 1 µM (1 μM) came out at 31%.
With `CC1=NC(NC(=O)Nc2cccc(C(=O)O)c2)C(=O)N(CC(=O)N(c2ccccc2)C(C)C)c2ccccc21` (stereo not shown) [Example 7, 3-{3-[1-(Isopropyl-phenyl-carbamoylmethyl)-5-methyl-2-oxo-2,3-dihydro-1H-benzo[e][1,4]diazepin-3-yl]-ureido}-benzoic acid], where the note is “1 μM”, the % contraction at 1 µM stood at 16%. Moreover, the % contraction at 30 µM (30 μM) was 61%.
As to `COc1ccc(N(C(=O)CN2C(=O)C(NC(=O)Nc3cccc(C(=O)O)c3)N=C(c3ccccc3)c3ccccc32)C(C)C)cc1` (stereo not shown) [Example 8, 3-(3-{1-[Isopropyl-(4-methoxy-phenyl)-carbamoylmethyl]-2-oxo-5-phenyl-2,3-dihydro-1H-benzo[e][1,4]diazepin-3yl}-ureido)-benzoic acid], the % contraction at 1 µM (1 μM) amounted to 59%. Also, where the note is “30 μM”, the % contraction at 30 µM was determined as 86%.
As for `CC(C)N(C(=O)CN1C(=O)C(NC(=O)c2ccc(Cl)cc2N)N=C(c2ccccc2)c2ccccc21)c1ccccc1` (stereo not shown) [Example 6, 2-Amino-4-chloro-N-[1-(isopropyl-phenyl-carbamoylmethyl)-5-phenyl-2-oxo-5-phenyl-2,3-dihydro-1H-benzo[e][1,4]diazepin-3-yl]-benzamide], for the setting “1 μM”, the % contraction at 1 µM was determined as 41%.
The same measure, in the same setting: the result for `COc1ccc(N(C(=O)CN2C(=O)C(NC(=O)Nc3ccccc3)N=C(c3cccnc3)c3ccccc32)C(C)C)cc1` (stereo not shown) [Example 18, N-Isopropyl-N-(4-methoxy-phenyl)-2-[2-oxo-3-(3-phenyl-ureido)-5-pyridin-3-yl-2,3-dihydro-benzo[e][1,4]diazepin-1-yl]-acetamide] reads 75%; that for `COc1ccc(N(C(=O)CN2C(=O)[C@H](Cc3c[nH]c4ccccc34)n3cnnc3-c3ccccc32)C(C)C)cc1` [Example 22, S-2-[4-(1H-Indol-3-ylmethyl)-5-oxo-6,5-dihydro-1,2,3a,6-tetraaza-benzo[e]azulene-6-yl}-N-isopyropyl-N-(4-methoxy-phenyl)acetamide], 36%; that for `COc1ccc(N(C(=O)CN2C(=O)C(Cc3c[nH]c4ccccc34)N=C(c3ccccc3)c3ccccc32)C(C)C)cc1` (stereo not shown) [Example 17, 3-{1-[Isopropyl-(4-methoxy-phenyl)-carbamoylmethyl]-2-oxo-5-phenyl-2,3-dihydro-1H-benzo[e][1,4]diazepin-3-ylmethyl}-indolyl], 24%.
Consider `CC(C)N(C(=O)CN1C(=O)C(NC(=O)c2cc3ccccc3[nH]2)N=C(c2ccccc2)c2ccccc21)c1ccccc1` (stereo not shown) [Example 14, 1H-indolyl-2-carboxylic acid [1-(isopropyl-phenyl-carbamoylmethyl)-2-oxo-5-phenyl-2,3-dihydro-1H-benzo[e][1,4]diazepin-3-yl]-amide], for which the % contraction at 30 µM (30 μM) came to 13%.
As to `COc1ccc(N(C(=O)CN2C(=O)C(CC(=O)Nc3cccc(C(=O)O)c3)N=C(c3ccccc3)c3ccccc32)C(C)C)cc1` (stereo not shown) [Example 10, 3-(2-{1-[Isopropyl-(4-methoxy-phenyl)-carbamoylmethyl]-2-oxo-5-phenyl-2,3-dihydro-1H-benzo[e][1,4]diazepin-3-yl}-acetyl-amino)-benzoic acid], under “1 μM”, the % contraction at 1 µM turned out to be 54%.
In the case of `CC(C)N(C(=O)CN1C(=O)C(NC(=O)Nc2ccccc2)[N+]([O-])=C(c2ccccc2)c2ccccc21)c1ccccc1` (stereo not shown) [Example 16, N-Isopropyl-2-[4-N-oxide-2-oxo-5-phenyl-3-(3-phenyl-ureido)-2,3-dihydro-benzo[e][1,4]diazepin-1-yl]-N-phenyl-acetamide], the % contraction at 30 µM (30 μM) was found to be 67%.
For the compound `CC(C)N(C(=O)CN1C(=O)C(NC(=O)Nc2cccc(C(=O)O)c2)N=C(c2ccccc2)c2ccccc21)c1ccccc1` (stereo not shown) [Example 5, 3-{3-[1-(Isopropyl-phenyl-carbamoylmethyl)-2-oxo-5-phenyl-2,3-dihydro-1H-benzo[e][1,4]diazepin-3-yl]-ureido}-benzoic acid], the % contraction at 30 µM (30 μM) was 82%.
On to `CC(C)N(C(=O)CN1C(=O)C(NC(=O)Nc2cccc(C(=O)O)c2)N=C(c2ccccc2)c2ccccc21)c1ccc(N(C)C)cc1` (stereo not shown) [Example 9, 3-(3-{1-[(4-Dimethylamino-phenyl)-isopropyl-carbamoylmethyl]-2-oxo-5-phenyl-2,3-dihydro-1H-benzo[e][1,4]diazepin-3-yl}-ureido)-benzoic acid], for which, under “1 μM”, the % contraction at 1 µM was 73%. For the setting “30 μM”, the % contraction at 30 µM is 62%.
As for `COc1ccc(N(C(=O)CN2C(=O)[C@@H](Cc3c[nH]c4ccccc34)n3cnnc3-c3ccccc32)C(C)C)cc1` [Example 23, (R)-2-[4-(1H-Indol-3-ylmethyl)-5-oxo-6,5-dihydro-1,2,3a,6-tetraaza-benzo[e]azulene6-yl}-N-isopropyl-N-(4-methoxy-phenyl)-acetamide], the % contraction at 1 µM (1 μM) stood at 36%.
As to `CC(C)N(C(=O)CN1C(=O)C(NC(=O)Nc2cccc(-c3nn[nH]n3)c2)N=C(c2ccccc2)c2ccccc21)c1ccccc1` (stereo not shown) [Example 1, 1N-Isopropyl-2-(2-oxo-5-phenyl-3-{3-[3-(1H-tetrazol-5-yl)-phenyl]-ureido}-2,3-dihydro-benzo[e][1,4]diazepin-1-yl)-N-phenyl-acetamide], the % contraction at 30 µM (30 μM) was 63%.
For the compound `CC(C)N(C(=O)CN1C(=O)C(NC(=O)c2cc3ccccc3n2CC(=O)O)N=C(c2ccccc2)c2ccccc21)c1ccccc1` (stereo not shown) [Example 15, {2-[1-(Isopropyl-phenyl-carbamoylmethyl)-2-oxo-5-phenyl-2,3-dihydro-1H-benzo[e][1,4]diazepin-3-ylcarbamoyl]-indol-1-yl}-acetic acid], where the note is “30 μM”, the % contraction at 30 µM is 52%.
With `CC1=NC(NC(=O)Nc2ccccc2)C(=O)N(CC(=O)N(c2ccccc2)C(C)C)c2ccccc21` (stereo not shown) [Example 2, N-Isopropyl-2-[5-methyl-2-oxo-3-(3-phenyl-ureido)-2,3-dihydro-benzo[e][1,4]diazepin-1-yl]-N-phenyl-acetamide], the % contraction at 30 µM (30 μM) amounted to 88%.
`COc1ccc(N(C(=O)CN2C(=O)C(CC(=O)Nc3ccccc3)N=C(c3ccccc3)c3ccccc32)C(C)C)cc1` (stereo not shown) [Example 11, 2-{1-[Isopropyl-(4-methoxy-phenyl)-carbamoylmethyl]-2-oxo-5-phenyl-2,3-dihydro-1H-benzo[e][1,4]diazepin-3-yl}N-phenyl-acetamide]: the % contraction at 1 µM (1 μM) amounted to 56%. For the same compound, the % contraction at 30 µM (30 μM) was 43%.
`CC(C)N(C(=O)CN1C(=O)C(NC(=O)Nc2ccccc2)N=C(c2ccccc2)c2ccccc21)c1ccccc1` (stereo not shown) [Example 3]: the % contraction at 30 µM (30 μM) turned out to be 38%.
Take `CC(C)N(C(=O)CN1C(=O)C(NC(=O)Nc2ccccc2)n2cnnc2-c2ccccc21)c1ccccc1` (stereo not shown) [Example 19, N-Isopropyl-N-phenyl-2-[5-oxo-4-(3-phenyl-ureido)-4,5-dihydro-1,2,3a,6-tetraaza-benzo[e]azulen-6-yl]-acetamide]: the % contraction at 1 µM (1 μM) came out at 83%. The % contraction at 30 µM (30 μM) turned out to be 58%.
Take `COc1ccc(N(C(=O)CN2C(=O)[C@@H](Cc3c[nH]c4ccccc34)NC(=O)c3c(CC(=O)O)cccc32)C(C)C)cc1` [Example 24]: the “% Contraction (1 μM), expressed as % CCK-induced maximal response” value (1 μM) turned out to be 93%. The “% Contraction (30 μM), expressed as % CCK-induced maximal response” value (30 μM) amounted to 79%.
Turning to `CC(C)N(C(=O)CN1C(=O)[C@@H](NC(=O)Nc2cccc(C(=O)O)c2)N=C(c2ccccc2)c2ccccc21)c1ccccc1` [Example 12, (S)-3-{3-[1-(Isopropyl-phenyl-carbamoylmethyl)-2-oxo-5-phenyl-2,3-dihydro-1H-benzo[e][1,4]diazepin-3-yl]-ureido}-benzoic acid], the % contraction at 30 µM (30 μM) amounted to 80%.
With `CC1=NC(NC(=O)Nc2cccc3cn[nH]c23)C(=O)N(CC(=O)N(c2ccccc2)C(C)C)c2ccccc21` (stereo not shown) [Example 4], the % contraction at 1 µM (1 μM) came out at 23%. For the same compound, the % contraction at 30 µM (30 μM) worked out at 59%.
`CC(C)N(C(=O)CN1C(=O)[C@H](NC(=O)Nc2cccc(C(=O)O)c2)N=C(c2ccccc2)c2ccccc21)c1ccccc1` [Example 13, (R)-3-{3-[1-(Isopropyl-phenyl-carbamoylmethyl)-2-oxo-5-phenyl-2,3-dihydro-1H-benzo[e][1,4]diazepin-3-yl]-ureido}-benzoic acid]: under “30 μM”, the % contraction at 30 µM stood at 77%.
